Test results: article PMC6893898, “Receptor Interaction Profiles of 4-Alkoxy-Substituted 2,5-Dimethoxyphenethylamines and Related Amphetamines” (Frontiers in Pharmacology, 2019)

Experiments:
dopaminergic D2 receptor = biological target: T1, dopaminergic D2 receptor (Homo sapiens, UniProt P14416); test: Radioligand binding, dopaminergic D2 receptor ([3H]spiperone)
T1 construct: expressed in transfected cells; host or cells: HEK 293 (membrane preparation)

rat TAAR1 = biological target: T2, rat TAAR1 (Rattus norvegicus, UniProt Q923Y9); test: Radioligand binding, rat TAAR1 ([3H]RO5166017)
T2 construct: expressed in transfected cells; host or cells: HEK 293 (membrane preparation)

α2A adrenergic receptor = biological target: T3, α2A adrenergic receptor (Homo sapiens, UniProt P08913); test: Radioligand binding, α2A adrenergic receptor ([3H]rauwolscine)
T3 construct: expressed in transfected cells; host or cells: Chinese hamster lung cell line (membrane preparation)
T3 sequence (P08913 1-465): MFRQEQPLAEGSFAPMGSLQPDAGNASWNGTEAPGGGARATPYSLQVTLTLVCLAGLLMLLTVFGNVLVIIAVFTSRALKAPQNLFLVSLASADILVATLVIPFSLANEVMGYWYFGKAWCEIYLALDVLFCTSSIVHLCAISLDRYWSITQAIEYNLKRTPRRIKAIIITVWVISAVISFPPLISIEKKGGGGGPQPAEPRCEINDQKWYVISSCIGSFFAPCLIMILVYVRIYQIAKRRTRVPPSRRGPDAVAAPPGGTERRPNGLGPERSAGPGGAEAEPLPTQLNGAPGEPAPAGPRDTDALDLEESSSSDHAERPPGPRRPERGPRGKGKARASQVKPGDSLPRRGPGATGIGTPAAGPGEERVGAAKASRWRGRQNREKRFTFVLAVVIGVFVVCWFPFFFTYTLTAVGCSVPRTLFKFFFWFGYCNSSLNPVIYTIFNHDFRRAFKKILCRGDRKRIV

5-HT2C receptor = biological target: T4, 5-HT2C receptor (Homo sapiens, UniProt P28335); test: biochemical; assay type: binding; conditions: for Ki: [3H]mesulgerine, read-out: h5-HT2C Receptor binding Ki ± SD
T4 construct: expressed in transfected cells; host or cells: HEK 293 (membrane preparation)
T4 sequence (P28335 33-458): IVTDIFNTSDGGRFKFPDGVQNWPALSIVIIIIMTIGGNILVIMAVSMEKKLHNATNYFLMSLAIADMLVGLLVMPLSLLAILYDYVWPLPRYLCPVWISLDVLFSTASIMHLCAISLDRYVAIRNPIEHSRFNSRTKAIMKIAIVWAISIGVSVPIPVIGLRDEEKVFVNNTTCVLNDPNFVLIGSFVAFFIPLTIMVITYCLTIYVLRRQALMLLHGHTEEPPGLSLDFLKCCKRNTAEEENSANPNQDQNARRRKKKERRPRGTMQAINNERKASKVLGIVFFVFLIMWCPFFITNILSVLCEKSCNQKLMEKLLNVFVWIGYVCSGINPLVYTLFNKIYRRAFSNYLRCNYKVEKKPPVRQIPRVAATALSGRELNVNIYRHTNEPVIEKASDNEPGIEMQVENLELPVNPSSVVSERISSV

5-HT1A receptor = biological target: T5, 5-HT1A receptor (Homo sapiens, UniProt P08908); test: Radioligand binding, 5-HT1A receptor ([3H]8-OH-DPAT)
T5 construct: expressed in transfected cells; host or cells: HEK 293 (membrane preparation)
T5 sequence (P08908 1-422): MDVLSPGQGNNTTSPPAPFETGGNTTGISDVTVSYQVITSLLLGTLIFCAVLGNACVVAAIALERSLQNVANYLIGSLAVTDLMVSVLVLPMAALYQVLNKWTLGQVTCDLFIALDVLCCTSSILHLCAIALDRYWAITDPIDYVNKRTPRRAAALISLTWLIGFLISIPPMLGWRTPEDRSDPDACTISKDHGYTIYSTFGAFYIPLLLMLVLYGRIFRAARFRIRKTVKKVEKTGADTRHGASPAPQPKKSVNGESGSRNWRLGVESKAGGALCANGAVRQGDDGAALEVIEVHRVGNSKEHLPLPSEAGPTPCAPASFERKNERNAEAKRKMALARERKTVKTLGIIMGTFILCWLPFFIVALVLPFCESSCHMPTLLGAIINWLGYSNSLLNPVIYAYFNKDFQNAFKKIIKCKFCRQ

α1A adrenergic receptor = biological target: T6, α1A adrenergic receptor (Homo sapiens, UniProt P35348); test: Radioligand binding, α1A adrenergic receptor ([3H]prazosin)
T6 construct: expressed in transfected cells; host or cells: Chinese hamster ovary cell line (membrane preparation)
T6 sequence (P35348 1-466): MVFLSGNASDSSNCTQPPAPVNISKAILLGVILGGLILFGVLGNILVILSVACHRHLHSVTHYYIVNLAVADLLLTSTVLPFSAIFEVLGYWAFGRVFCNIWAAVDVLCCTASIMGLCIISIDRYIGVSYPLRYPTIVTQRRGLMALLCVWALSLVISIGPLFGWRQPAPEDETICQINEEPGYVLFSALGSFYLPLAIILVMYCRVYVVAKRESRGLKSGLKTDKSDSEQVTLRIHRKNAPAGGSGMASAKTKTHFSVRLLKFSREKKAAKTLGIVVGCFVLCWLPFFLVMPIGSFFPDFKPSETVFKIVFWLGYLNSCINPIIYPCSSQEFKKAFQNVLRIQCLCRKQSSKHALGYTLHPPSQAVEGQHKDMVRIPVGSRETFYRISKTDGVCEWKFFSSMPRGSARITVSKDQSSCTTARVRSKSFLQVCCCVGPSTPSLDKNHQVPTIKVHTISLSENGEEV

hDAT = hDAT (Homo sapiens, UniProt Q01959); test: Radioligand binding, DAT ([3H]WIN35,428); parameters: expressed in transfected cells; host or cells: HEK 293 (membrane preparation)
Chain of hDAT (Q01959 whole entry): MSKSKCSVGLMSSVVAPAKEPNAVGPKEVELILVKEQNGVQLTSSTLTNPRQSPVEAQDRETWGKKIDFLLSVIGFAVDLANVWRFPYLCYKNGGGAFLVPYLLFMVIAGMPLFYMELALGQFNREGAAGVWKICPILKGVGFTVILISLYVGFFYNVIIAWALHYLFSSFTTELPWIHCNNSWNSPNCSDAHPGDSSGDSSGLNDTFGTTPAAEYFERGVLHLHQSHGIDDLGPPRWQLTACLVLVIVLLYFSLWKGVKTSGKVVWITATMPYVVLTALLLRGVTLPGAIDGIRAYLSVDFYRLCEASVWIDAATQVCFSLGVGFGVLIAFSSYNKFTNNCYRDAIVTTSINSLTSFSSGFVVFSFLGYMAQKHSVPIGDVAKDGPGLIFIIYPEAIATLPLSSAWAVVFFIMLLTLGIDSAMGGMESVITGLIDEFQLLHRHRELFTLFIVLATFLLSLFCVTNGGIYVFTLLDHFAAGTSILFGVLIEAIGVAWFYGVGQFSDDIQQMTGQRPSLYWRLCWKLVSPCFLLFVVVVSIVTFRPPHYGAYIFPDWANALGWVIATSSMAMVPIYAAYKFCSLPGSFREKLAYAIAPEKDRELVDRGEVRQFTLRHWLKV

T1 sequence (P14416 whole entry): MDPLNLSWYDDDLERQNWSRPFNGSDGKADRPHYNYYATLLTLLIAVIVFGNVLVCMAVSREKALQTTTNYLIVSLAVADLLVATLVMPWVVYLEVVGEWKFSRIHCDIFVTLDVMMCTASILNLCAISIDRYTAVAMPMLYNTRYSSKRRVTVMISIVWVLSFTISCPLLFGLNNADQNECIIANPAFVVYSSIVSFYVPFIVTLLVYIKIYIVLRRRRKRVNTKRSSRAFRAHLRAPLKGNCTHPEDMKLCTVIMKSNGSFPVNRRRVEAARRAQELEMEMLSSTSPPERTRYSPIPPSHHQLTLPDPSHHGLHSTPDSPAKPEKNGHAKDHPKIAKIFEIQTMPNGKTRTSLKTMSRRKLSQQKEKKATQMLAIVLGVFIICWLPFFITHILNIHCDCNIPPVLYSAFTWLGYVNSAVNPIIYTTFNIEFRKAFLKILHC
T2 sequence (Q923Y9 whole entry): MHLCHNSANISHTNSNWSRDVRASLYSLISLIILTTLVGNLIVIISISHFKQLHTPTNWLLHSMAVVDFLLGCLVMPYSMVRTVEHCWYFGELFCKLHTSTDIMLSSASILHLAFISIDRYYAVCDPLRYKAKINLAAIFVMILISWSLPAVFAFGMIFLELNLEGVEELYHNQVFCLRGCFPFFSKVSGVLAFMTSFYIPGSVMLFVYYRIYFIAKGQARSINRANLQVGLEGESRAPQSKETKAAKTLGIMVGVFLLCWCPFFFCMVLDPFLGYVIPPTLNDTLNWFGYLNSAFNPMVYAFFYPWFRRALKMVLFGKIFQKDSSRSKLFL

Compound | Ki (dopaminergic D2 receptor) | Ki (rat TAAR1) | Ki (α2A adrenergic receptor) | Ki (5-HT2C receptor) | Ki (5-HT1A receptor) | Ki (α1A adrenergic receptor) | Ki (hDAT) | Higher rat TAAR1 affinity than TMA-2 (19) and MIPM (18) (rat TAAR1) | Enhancement of 5-HT2C binding affinity compared to TMA-2 (19) (5-HT2C receptor) | Increase in 5-HT2C binding affinity compared to MFEM (15) (5-HT2C receptor) | Reduction of 5-HT2C binding affinity compared to TMA-2 (19) (5-HT2C receptor)
CCOc1cc(OC)c(CCN)cc1OC [2C-O-2, 2,5-dimethoxy-4-ethoxyphenethylamine] | > 4.8 µM | 0.34 ± 0.07 µM | 2.6 ± 0.1 µM | 2.3 ± 1.2 µM | 3.6 ± 0.4 µM | > 6.5 µM | > 8.7 µM | – | – | – | –
C=C(C)COc1cc(OC)c(CCN)cc1OC [2C-O-3, 2,5-dimethoxy-4-methallyloxyphenethylamine] | > 4.8 µM | 0.13 µM | 0.18 ± 0.01 µM | 0.15 ± 0.03 µM | 2.7 ± 0.2 µM | > 6.5 µM | > 8.7 µM | – | – | – | –
C=CCOc1cc(OC)c(CCN)cc1OC [2C-O-16, 4-allyloxy-2,5-dimethoxyphenethylamine] | > 4.8 µM | 0.26 ± 0.07 µM | 0.62 ± 0.02 µM | 0.47 ± 0.04 µM | 4.5 ± 0.5 µM | > 6.5 µM | > 8.7 µM | – | – | – | –
COc1cc(OCCF)c(OC)cc1CCN [2C-O-21, 2,5-dimethoxy-4-(2-fluoroethoxy)phenethylamine] | > 4.8 µM | 0.41 ± 0.04 µM | 3.6 ± 0.5 µM | 3.6 ± 1.9 µM | 5.5 µM | > 6.5 µM | > 8.7 µM | – | – | – | –
COc1cc(OCC(F)F)c(OC)cc1CCN [2C-O-21.5, 4-(2,2-difluoroethoxy)-2,5-dimethoxyphenethylamine] | > 4.8 µM | 0.25 ± 0.02 µM | 1.9 ± 0.1 µM | 4.2 ± 1.5 µM | 2.9 ± 0.2 µM | > 6.5 µM | > 8.7 µM | – | – | – | –
COc1cc(OCC(F)(F)F)c(OC)cc1CCN [2C-O-22, 2,5-dimethoxy-4-(2,2,2-trifluoroethoxy)phenethylamine] | > 4.8 µM | 0.24 ± 0.06 µM | 1.8 ± 0.1 µM | 1.9 ± 0.4 µM | 3.3 ± 0.2 µM | > 6.5 µM | > 8.7 µM | – | – | – | –
COc1cc(OCc2ccccc2)c(OC)cc1CCN [2C-O-27, 4-benzyloxy-2,5-dimethoxyphenethylamine] | > 4.8 µM | 0.021 ± 0.003 µM | 0.57 ± 0.03 µM | 0.11 ± 0.05 µM | 2.7 ± 0.1 µM | > 6.5 µM | 6.1 ± 0.4 µM | – | – | – | –
C=CCOc1cc(OC)c(CC(C)N)cc1OC (stereo not shown) [MALM, 4-allyloxy-2,5-dimethoxyamphetamine] | > 4.4 µM | 1.1 ± 0.2 µM | > 4.8 µM | 0.9 ± 0.22 µM | > 5.6 µM | > 6.5 µM | > 8.7 µM | 3 fold | 6 fold | – | –
COc1cc(OCC(F)F)c(OC)cc1CC(C)N (stereo not shown) [MDFEM, 4-(2,2-difluoroethoxy)-2,5-dimethoxyamphetamine] | > 4.8 µM | 1.2 ± 0.2 µM | > 4.8 µM | 6.7 ± 2.4 µM | > 5.6 µM | > 6.5 µM | > 8.7 µM | – | – | 2 fold | –
COc1cc(OCCF)c(OC)cc1CC(C)N (stereo not shown) [MFEM, 2,5-dimethoxy-4-(2-fluoroethoxy)amphetamine] | > 4.8 µM | 1.64 ± 0.3 µM | > 4.8 µM | 11 ± 3 µM | > 5.6 µM | > 6.5 µM | > 8.7 µM | – | – | – | –
COc1cc(OC(C)C)c(OC)cc1CC(C)N (stereo not shown) [MIPM, 2,5-dimethoxy-4-isopropoxyamphetamine] | > 4.8 µM | 2.9 ± 0.7 µM | > 4.8 µM | 9.03 ± 2.39 µM | > 5.6 µM | > 6.5 µM | > 8.7 µM | – | – | – | 2 fold
C=C(C)COc1cc(OC)c(CC(C)N)cc1OC (stereo not shown) [MMALM, 2,5-dimethoxy-4-methallyloxyamphetamine] | > 4.8 µM | 0.63 ± 0.15 µM | 2.4 ± 0.2 µM | 0.29 ± 0.11 µM | – | > 6.5 µM | > 8.7 µM | 5 fold | 18 fold | – | –
COc1cc(OCC(F)(F)F)c(OC)cc1CC(C)N (stereo not shown) [MTFEM, 2,5-dimethoxy-4-(2,2,2-trifluoroethoxy)amphetamine] | > 4.8 µM | 1.3 ± 0.1 µM | > 4.8 µM | 2.4 ± 0.8 µM | > 5.6 µM | > 6.5 µM | > 8.7 µM | – | – | ~5 fold | –
